{"source": "paper PMC5847527", "about": "“Identification of a novel 2-oxindole fluorinated derivative as in vivo antitumor agent for prostate cancer acting via AMPK activation” (Scientific Reports, 2018)", "assay_type_in_all_cases": "cell-based, human", "key": {"LNCaP cells": {"system": "LNCaP cells", "assay": "Cell viability by MTT assay, LNCaP", "procedure": "(§1) Figure 3 Comparison of the effect of 2-oxindole fluorinated derivatives on the proliferation of human prostate cancer cells. (A) Normal (PTN2 and RWPE-1) and cancer (PC3,DU145 and LNCaP) prostate cells were treated with different doses of the compounds for 24 hours and cell viability was monitored by MTT assay. […] (C) PC-3, DU145 and LNCaP cells were treated with 25 µM of compound 8c for different times. Values were normalized with the control and represent the mean ± SD of at least three independent experiments. *p < 0.05 and **p < 0.01 compared to control by the Student’s - test.\n(§2) Human prostate cancer epithelial PC-3, DU145 and LNCaP and human prostate normal RWPE-1 cells were purchased from American Type Culture Collection (ATCC CRL-1435 CRL-1740 and CRL 11609 respectively) (Rockville, MD, USA). The human prostate normal PNT2 cell line was purchased to ECACC (European Collection of Cell cultures, Salisbury, SP4 0JG, UK). Cells were routinely grown in RPMI 1640 medium supplemented with 100 IU/ml penicillin G sodium, 100 µg/ml streptomycin sulfate, 0.25 µg/ml amphotericin B (Invitrogen, Paisley, UK) and 10% fetal calf serum. Cells were used at passages between 10–20. For treatment experiments, cells were plated and grown over night, the medium was then replaced with serum-free RPMI 1640 for 24 hours and then incubated with different doses of the compounds for the indicated times.\n(§3) Cell viability was determined by 3-(4,5-dimethylthiazol-2-yl)-2,5-diphenyltetrazolium bromide (MTT) (Sigma-Aldrich) method. […] The optical density in each well was evaluated by measurement of absorbance at 490 and 650 nm using a microplate reader (ELX 800 Bio-Tek Intruments, INC). IC50 values were calculated using GraphPad Prism vs 6.0 (GraphPad Software, Inc, La Jolla, CA, USA). Cell viability was also determined by counting viable and dead cells by Trypan blue staining. Trypan blue positive and negative cells were counted using a Countess^TM automated cell counter (Invitrogen, Carlsbad, CA, USA). Results were expressed in relation to total number of cells counted."}, "PNT2 cells": {"system": "PNT2 cells", "assay": "Cell viability by MTT assay, PNT2 normal prostate cells", "procedure": "as §1, §2, §3"}, "RWPE-1 cells": {"system": "RWPE-1 cells", "assay": "Cell viability by MTT assay, RWPE-1 normal prostate cells", "procedure": "as §1, §2, §3"}, "Cyclin D1": {"system": "Cyclin D1", "assay": "Cyclin D1 level by Western blot in PC-3 and LNCaP cells", "procedure": "Figure 4 Cell Cycle analysis in 8c-treated prostate cancer cells. (A) PC-3 and LNCaP cells were treated with compound 8c for 24 hours and cell cycle analysis was analyzed by flow cytometry using Propidium Iodide (PI). Percentage of cells in subG0, G1, S, and G2/M phases is indicated in the histogram. (B) Levels of Cyclin D1, p-p53, p53, p21 and cleaved Caspase 3 (17 kDa fragment) were determined by Western blot. Upper panel, representative Western blot of two different experiments. β-tubulin (β-Tub) serves as a loading control. Lower panel, the densitometric analyses of bands represented as the mean ± SD of the two different experiments. *p < 0.05 and **p < 0.01 compared with the control group by the Student’s t-test.\nThere are many intracellular mechanisms whereby AMPK activation inhibits cell growth. […] To further investigate the mechanism underpinning the cell viability inhibitory effect of compound 8c, levels of Cyclin D1 were determined by Western blot in PC-3 and LNCaP cells.\nCells were lysed in Lysis buffer (50 mM Tris pH 7.4, 0.8 M NaCl, 5 mM MgCl2, 0.1% Triton X-100) containing Protease Inhibitor and Phosphatase inhibitor Cocktails (Roche, Basel, Switzerland). Protein concentrations were measured by BioRad™ protein assay kit (Richmond, CA, USA). […] Films were analyzed by densitometry. […]"}}}
{"smiles": "O=C1Nc2ccccc2C1(F)Cc1ccc(-c2ccccc2)o1", "note": "(stereo not shown) [Compound 8c, 3-fluoro-3-((5-phenylfuran-2-yl)methyl)indolin-2-one]", "values": [{"measurement": "inhibitory efficacy on cells viability at 50 μM", "setting": "LNCaP cells; 50 μM", "result": 85, "unit": "%"}, {"measurement": "IC50", "setting": "LNCaP cells; Homo sapiens, MTT, 24 hours", "result": 30, "unit": "µM"}, {"measurement": "IC50", "setting": "PNT2 cells; Homo sapiens, PNT2, MTT, 24 hours", "result": 65, "unit": "µM"}, {"measurement": "inhibitory efficacy on cells viability at 50 μM", "setting": "PNT2 cells; PNT2, 50 μM", "result": 56, "unit": "%"}, {"measurement": "IC50", "setting": "RWPE-1 cells; Homo sapiens, RWPE-1, MTT, 24 hours", "result": "> 1000", "unit": "µM"}, {"measurement": "inhibitory efficacy on cells viability at 50 μM", "setting": "RWPE-1 cells; RWPE-1, 50 μM", "result": 50, "unit": "%"}, {"measurement": "Cyclin D1 level", "setting": "Cyclin D1", "result": "marked decrease in Cyclin D1 level"}]}
